Data set [1] in a line: in vivo. The note with it: rat, po, 1 mg/kg.
A short description of data set [2]: Oral bioavailability in cynomolgus monkey at 1 mg/kg administered as cassette dose by LC-MS/MS analysis. The class given is ADME, organism-based, Macaca fascicularis. The settings on record: in vivo.
Another data set can be described thus: in vitro. The note with it: PAMPA, pH 7.4.
A further data set has as its system Cynomolgus monkey. As to the kind of experiment: In vivo inhibition of plasma renin in po dosed cynomolgus monkey measured at 4 and 24 hrs post dose by radioimmunoassay. The class given is functional, organism-based. The settings on record: Macaca fascicularis.
A short description of data set [3]: in vivo. The note with it: rat, po, 1 mg/kg. This is another data set of the same source.
A short description of the next data set: physchem. The settings on record: 1-octanol/aqueous buffer, pH 7.4.
Data set [4] is described as follows: Cmax in cynomolgus monkey at 0.1 mg/kg, iv or 1 mg/kg, po administered as cassette dose by LC-MS/MS analysis. It is filed as ADME, organism-based, Macaca fascicularis. The settings on record: in vivo.
Data set [5] is described as follows: Tmax in cynomolgus monkey at 0.1 mg/kg, iv or 1 mg/kg, po administered as cassette dose by LC-MS/MS analysis. The class given is ADME, organism-based, Macaca fascicularis. The note with it: in vivo.
Data set [6] is described as follows: in vivo. The note with it: rat, iv, 0.1 mg/kg.
Data set [7] is described as follows: AUC in cynomolgus monkey at 0.1 mg/kg, iv administered as cassette dose by LC-MS/MS analysis. It is filed as ADME, organism-based, Macaca fascicularis. The note with it: in vivo.
The nature of data set [8]: AUC in cynomolgus monkey at 1 mg/kg, po administered as cassette dose by LC-MS/MS analysis. The note with it: in vivo. The class given is ADME, organism-based, Macaca fascicularis.
Data set [9] is described as follows: in vivo. The settings on record: rat, iv.
Description: Clearance in rat at 0.1 mg/kg, iv or 1 mg/kg, po administered as cassette dose by LC-MS/MS analysis
The target in data set [10] is T1, Renin (Rattus norvegicus, UniProt P08424).
T1 sequence (P08424 whole entry): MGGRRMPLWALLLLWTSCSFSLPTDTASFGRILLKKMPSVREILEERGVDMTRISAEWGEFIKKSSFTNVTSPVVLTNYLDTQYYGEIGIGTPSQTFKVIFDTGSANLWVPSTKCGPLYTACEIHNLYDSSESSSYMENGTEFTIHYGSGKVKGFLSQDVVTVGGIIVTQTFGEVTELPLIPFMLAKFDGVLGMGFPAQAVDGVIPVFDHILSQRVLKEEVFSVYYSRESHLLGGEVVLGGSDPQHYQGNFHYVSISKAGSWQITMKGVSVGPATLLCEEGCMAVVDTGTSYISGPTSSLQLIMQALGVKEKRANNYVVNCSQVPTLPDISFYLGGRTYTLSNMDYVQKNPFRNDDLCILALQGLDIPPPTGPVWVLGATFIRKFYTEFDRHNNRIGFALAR
Description: Inhibition of renin in rat plasma

For data set [11], the target named is T2, Renin (Macaca mulatta, UniProt Q6DLW5).
T2 sequence (Q6DLW5 whole entry): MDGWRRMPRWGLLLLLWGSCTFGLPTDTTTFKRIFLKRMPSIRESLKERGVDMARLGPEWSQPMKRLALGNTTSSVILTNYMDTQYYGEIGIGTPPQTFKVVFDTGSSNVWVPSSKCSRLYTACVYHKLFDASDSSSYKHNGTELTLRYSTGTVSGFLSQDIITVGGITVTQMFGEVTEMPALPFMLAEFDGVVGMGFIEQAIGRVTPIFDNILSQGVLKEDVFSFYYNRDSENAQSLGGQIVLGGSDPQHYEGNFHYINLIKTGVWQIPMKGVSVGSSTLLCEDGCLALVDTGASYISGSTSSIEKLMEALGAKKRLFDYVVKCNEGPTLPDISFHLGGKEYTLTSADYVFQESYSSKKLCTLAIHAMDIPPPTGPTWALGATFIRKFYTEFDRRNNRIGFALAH
Description: Inhibition of renin in monkey plasma

Data set [12] in a line: Clearance in cynomolgus monkey at 0.1 mg/kg, iv or 1 mg/kg, po administered as cassette dose by LC-MS/MS analysis. The class given is ADME, organism-based, Macaca fascicularis. The settings on record: in vivo.
In a further data set the test system is Rattus norvegicus. As to the kind of experiment: Metabolic stability in rat at 0.1 mg/kg, iv or 1 mg/kg, po administered as cassette dose by LC-MS/MS analysis. The class given is ADME, organism-based. The settings on record: in vivo.

The values below come from ChEMBL document CHEMBL4118173, “Discovery of benzimidazole derivatives as orally active renin inhibitors: Optimization of 3,5-disubstituted piperidine to improve pharmacokinetic profile” (Bioorg Med Chem, 2018).

pIC50: −log10 of the molar value.

Description for in vitro: Permeability of the compound at pH 7.4 buffer after 3 hrs by PAMPA
Description for physchem: 1-octanol/aqueous buffer partition coefficient, log D of the compound at pH 7.4 by UV-vis/HPLC method

As for `COCCCCn1c(C(=O)N(CC(C)C)[C@@H]2CNC[C@H](C(=O)N3CCOCC3)C2)nc2ccccc21`, the area under the curve (AUC) in the data set “in vivo [1]” turned out to be 92.2 ng·h/mL; in “in vivo [6]” it was 68 ng·h/mL; in [7], 128 ng·h/mL; in data set [8], 323 ng·h/mL. Besides, the bioavailability came out at 25% in [2] and 14% in the data set “in vivo [3]”. The Papp at 3 h in “in vitro” turned out to be 34.5 ×10⁻⁶ cm/s. The inhibition entry with Cynomolgus monkey was “Dose-dependent effect”. The same compound registered a logD in the data set “physchem” of 2.11. The same compound came in with a Cmax in data set [4] of 29.1 ng/mL. Further, the Tmax in [5] was 1.67 h. The clearance in “in vivo [9]” is 25.9 mL/min/kg; in data set [12], 14.2 mL/min/kg. For the same compound, the pIC50 on Renin [10] is 6.51; on Renin [11] it was 8.82.

Consider `COCCCNc1nc(C(C)(C)C)ncc1C(=O)N(CC(C)C)[C@@H]1CNC[C@H](C(=O)N2CCOCC2)C1`, for which the Papp at 3 h in the data set “in vitro” worked out at 39 ×10⁻⁶ cm/s. For the same compound, the bioavailability in “in vivo [3]” was < 1%. The compound also gave a logD in “physchem” of 2.99. In addition, the AUC in “in vivo [6]” was 14.1 ng·h/mL. The compound further showed a clearance in “in vivo [9]” of 121 mL/min/kg. In addition, the Stability result with Rattus norvegicus is given as “Stable”.

A word on the AUC: it is concentration integrated over time. Broadly, the bioavailability is dose-corrected exposure relative to a reference, in per cent. In general, Papp refers to the rate of passage across a membrane or cell layer, normalised by area and donor concentration. One may read the logD as the decadic logarithm of the distribution of all forms, ionised or not, between an organic phase and buffer at a given pH. As usually defined, the Cmax is the highest concentration seen after dosing. One may read the Tmax as the time at which the peak concentration occurs. A word on the pIC50: it is the IC50 on a negative log10 scale, so that one unit is a factor of ten.
